Measurements from patent US12403144B2, “HECT E3 ligase inhibitors and uses thereof” (IFOM FONDAZIONE ISTITUTO FIRC DI ONCOLOGIA MOLECOLARE, priority 2019, dated 2025).
Where a name gives a salt, the structure may show the parent alone.

Biological target: T1, untagged HECT of NEDD4 wild-type (WT) (E3 ligase) (Homo sapiens, UniProt P46934)
T1 construct: untagged HECT of NEDD4 wild-type (WT) (E3 ligase); made in house
T1 sequence (P46934 519-900 isoform P46934-4 limits assumed): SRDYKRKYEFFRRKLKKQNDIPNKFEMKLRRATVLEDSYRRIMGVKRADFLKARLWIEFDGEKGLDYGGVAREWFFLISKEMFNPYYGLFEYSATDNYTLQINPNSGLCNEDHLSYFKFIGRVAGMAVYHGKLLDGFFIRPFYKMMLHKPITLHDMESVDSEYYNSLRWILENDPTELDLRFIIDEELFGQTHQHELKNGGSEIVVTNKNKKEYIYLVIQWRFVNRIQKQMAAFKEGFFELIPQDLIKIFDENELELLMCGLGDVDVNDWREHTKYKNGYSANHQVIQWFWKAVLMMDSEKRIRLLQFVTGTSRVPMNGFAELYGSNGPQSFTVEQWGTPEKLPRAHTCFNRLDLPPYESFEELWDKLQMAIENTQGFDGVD
Test: In vitro ubiquitination assay TR-FRET based (self-ubiquitination of NEDD4)
Type: biochemical
Conditions: at 11 μM; pre-incubated for 1 hour; AUC of 120 minutes kinetic; read-out: percentages of inhibition (NEDD4)
Method in brief: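 Mix of E1, His-UBE2D3 and untagged NEDD4 HECT (final 30, 350, 50 nM) with Eu-cryptate/Cy5/unlabelled ubiquitin in pH 7.6 Tris buffer, compounds (100–0.005 μM dilution series) pre-incubated 1 h, then started with ATP. 665/620 nm TR-FRET followed 120 min; % inhibition from AUC versus DMSO, no-ATP background.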

Structure (SMILES) | inhibition at 11 µM
CNC(=O)/C=C/CNCCCN1c2ccccc2CCc2ccc(Cl)cc21 [Compound 19, (E)-4-{[3-(3-chloro-10,11-dihydro-5H-dibenzo[b,f]azepin-5-yl)propyl]amino}-N-methyl-but-2-enamide hydrochloride] | < 30%
CCOC(=O)/C=C/CNCCCCN1c2cc(Cl)ccc2C(=O)N(CCCO)c2ccccc21 [Compound 48, Ethyl (E)-4-({4-[3-chloro-10-(3-hydroxypropyl)-11-oxo-10,11-dihydro-5H-dibenzo[b,e][1,4]diazepin-5-yl]butyl}amino)but-2-enoate maleate] | > 50%
CCOC(=O)/C=C/CNCCCC(=O)N1c2ccccc2CCc2ccc(Cl)cc21 [Compound 38, Ethyl (E)-4-{[4-(3-chloro-10,11-dihydro-5H-dibenzo[b,f]azepin-5-yl)-4-oxo-butyl]amino}but-2-enoate maleate] | > 50%
CCC(=O)/C=C/CN(C)CCCCN1c2ccccc2CCc2ccc(Cl)cc21 [Compound 54, (E)-6-[4-(3-chloro-10,11-dihydro-5H-dibenzo[b,f]azepin-5-yl)butyl-methyl-amino]hex-4-en-3-one maleate] | > 50%
O=C(/C=C/CNCCCCN1c2ccccc2CCc2ccc(Cl)cc21)NOC1CCNCC1 [Compound 83, (E)-4-[4-(3-Chloro-10,11-dihydro-5H-dibenzo[b,f]azepin-5-yl)butylamino]-N-(4-piperidyloxy)-but-2-enamide dimaleate] | > 50%
CON(C)C(=O)/C=C/CN(C)CCCN1c2ccccc2CCc2ccc(Cl)cc21 [Compound 6, (E)-4-[3-(3-Chloro-10,11-dihydro-5H-dibenzo[b,f]azepin-5-yl)propyl-methyl-amino]-N-methoxy-N-methyl-but-2-enamide] | > 50%
CCOC(=O)/C=C/CNCCCCN1c2cc(Cl)ccc2C(=O)N(CCOCCOC)c2ccccc21 [Compound 86, Ethyl (E)-4-{[4-(3-chloro-10-[2-(2-methoxyethoxy)ethyl]-11-oxo-10,11-dihydro-5H-dibenzo[b,e][1,4]diazepin-5-yl)butyl]amino}but-2-enoate maleate] | > 50%
O=C(/C=C/CNCCCCN1c2ccccc2CCc2ccc(Cl)cc21)NOc1ccccc1 [Compound 82, (E)-4-[4-(3-chloro-10,11-dihydro-5H-dibenzo[b,f]azepin-5-yl)butylamino]-N-phenoxy-but-2-enamide maleate] | > 50%
CCOC(=O)/C=C/CNCCCCN1c2ccc(O)cc2CCc2ccc(Cl)cc21 [Compound 39, Ethyl (E)-4-[4-(7-Chloro-2-hydroxy-10,11-dihydro-dibenzo[b,f]azepin-5-yl)-butylamino]-but-2-enoate maleate] | > 50%
COC(=O)/C=C/CN(C)CCCN1c2ccccc2CCc2ccc(Cl)cc21 [Compound 1, Methyl (E)-4-[3-(3-chloro-10,11-dihydro-5H-dibenzo[b,f]azepin-5-yl)propyl-methyl-amino]but-2-enoate hydrochloride] | 30 to 50%
O=C(O)/C=C/CNCCCN1c2ccccc2CCc2ccc(Cl)cc21 [Compound 16, (E)-4-[3-(3-chloro-10,11-dihydro-5H-dibenzo[b,f]azepin-5-yl)propylamino]but-2-enoic acid 2,2,2-trifluoroacetate] | < 30%
CCOC(=O)/C=C/CNCCCN1c2cc(Cl)ccc2COc2ccccc21 [Compound 35, Ethyl (E)-4-{3-[3-chlorodibenzo[b,e][1,4]oxazepin-5(11H)-yl]propylamino}but-2-enoate maleate] | > 50%
CCOC(=O)/C=C/CNCCCN1c2ccccc2C(=O)N(C)c2ccc(Cl)cc21 [Compound 28, Ethyl (E)-4-{[3-(7-chloro-10-methyl-11-oxo-10,11-dihydro-5H-dibenzo[b,e][1,4]diazepin-5-yl)propyl]amino}but-2-enoate maleate] | > 50%
CCOC(=O)/C=C/CNCCCN1c2cc(Cl)ccc2C(=O)N(CCCO)c2ccccc21 [Compound 49, Ethyl (E)-4-({3-[3-chloro-10-(3-hydroxypropyl)-11-oxo-10,11-dihydro-5H-dibenzo[b,e][1,4]diazepin-5-yl]propyl}amino)but-2-enoate maleate] | > 50%

Other lines, results leading:

inhibition at 11 µM | Structure (SMILES)
> 50% | CCOC(=O)/C=C/CNCCCN1c2ccccc2COc2ccc(Cl)cc21 [Compound 2, Ethyl (E)-4-[3-(7-chlorodibenzo[b,e][1,4]oxazepin-5(11H)-yl)propylamino]but-2-enoate maleate]
> 50% | CCOC(=O)/C=C/CNCCCCN1c2ccc(OC)cc2CCc2ccc(Cl)cc21 [Compound 67, Ethyl (E)-4-[4-(7-Chloro-2-methoxy-10,11-dihydro-dibenzo[b,f]azepin-5-yl)-butylamino]-but-2-enoate maleate]
> 50% | CN(C/C=C/C(N)=O)CCCCN1c2ccccc2CCc2ccc(Cl)cc21 [Compound 72, (E)-4-[4-(3-Chloro-10,11-dihydro-5H-dibenzo[b,f]azepin-5-yl)butyl-methyl-amino]but-2-enamide]
> 50% | CCOC(=O)/C=C/CNCCCCN1c2ccc(OCCOCCOC)cc2CCc2ccc(Cl)cc21 [Compound 98, Ethyl (E)-4-(4-{7-chloro-2-[2-(2-methoxy-ethoxy)-ethoxy]-10,11-dihydro-5H-dibenzo[b,f]azepin-5-yl}-butylamino)-but-2-enoate maleate]
30 to 50% | CCOC(=O)/C=C/CNCCCN1c2ccccc2CCc2ccccc21 [Compound 11, Ethyl (E)-4-[3-(10,11-dihydro-5H-dibenzo[b,f]azepin-5-yl)propylamino]but-2-enoate fumarate]
> 50% | CCOC(=O)/C=C/CNCCCN1c2cc(Cl)ccc2CCc2cnn(C)c21 [Compound 30, Ethyl (E)-4-{[3-(8-chloro-1-methyl-4,5-dihydropyrazolo-[3,4-b][1]-benzazepin-10(1H)-yl)propyl]amino}but-2-enoate maleate]
> 50% | CC(=O)/C=C/CN(C)CCCCN1c2cc(Cl)ccc2C(=O)N(C)c2ccccc21 [Compound 57, 3-Chloro-10-methyl-5-(4-{methyl[(E)-4-oxopent-2-en-1-yl]amino}butyl)-5,10-dihydro-11H-dibenzo[b,e][1,4]diazepin-11-one maleate]
